One assay has as its system A. baumannii CDC-0045. The experiment in a line: microbe, parasite or virus in culture. Format: cell-based. The note with it: Acinetobacter baumannii, CDC0045, read-out: MIC, A. baumannii CDC-0045.
A further assay concerns P. aeruginosa CDC-0054. As to the kind of experiment: microbe, parasite or virus in culture. Format: cell-based. Conditions: Pseudomonas aeruginosa, CDC0054, read-out: Minimum inhibitory concentration, P. aeruginosa CDC-0054.
Assay [1] has as its target T1, PBP3 from Pseudomonas aeruginosa (PAO1) (Pseudomonas aeruginosa, UniProt G3XD46).
T1 construct: made in house
As to the kind of experiment: Bocillin-FL fluorescence polarization competition binding, P. aeruginosa PBP3. Conditions: Binding affinity to P. aeruginosa PBP3; fluorescence polarization competition binding assay using Bocillin-FL; read-out: P. aeruginosa PBP3 Potency. The method in brief:
(§1)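 Purified PBP was preincubated with inhibitor (E. coli PBP3 1.5 μM, 30 min; P. aeruginosa PBP3 0.75 μM, A. baumannii PBP3 0.2 μM and PBP1a 1 μM, 15 min), then Bocillin-FL (0.1 μM; 0.05 μM for PBP1a) added and FP read up to 60 min. EC50 = 50% loss of bound probe.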

In a further assay the test system is P. aeruginosa ATCC 27853. The experiment in a line: microbe, parasite or virus in culture. Conditions: Pseudomonas aeruginosa, ATCC27853, read-out: Minimum inhibitory concentration, P. aeruginosa ATCC 27853. The class given is cell-based.
For a further assay, the system named is A. baumannii ATCC 17978. As to the kind of experiment: microbe, parasite or virus in culture. The class given is cell-based. Conditions: Acinetobacter baumannii, ATCC17978, read-out: MIC, A. baumannii ATCC 17978.
A further assay deals with A. baumannii 1258916. As to the kind of experiment: microbe, parasite or virus in culture. Format: cell-based, Acinetobacter baumannii. The note with it: Acinetobacter baumannii, 1258916, read-out: MIC, A. baumannii 1258916.
The next assay concerns P. aeruginosa CDC-0090. As to the kind of experiment: microbe, parasite or virus in culture. Format: cell-based. Conditions: Pseudomonas aeruginosa, CDC0090, read-out: Minimum inhibitory concentration, P. aeruginosa CDC-0090.
A further assay deals with A. baumannii CDC-0036. As to the kind of experiment: microbe, parasite or virus in culture. The class given is cell-based. Conditions: Acinetobacter baumannii, CDC0036, read-out: MIC, A. baumannii CDC-0036.
Assay [2] deals with B. thailandensis ATCC 700388. As to the kind of experiment: microbe, parasite or virus in culture. The class given is cell-based. Conditions: Burkholderia thailandensis, ATCC700388, read-out: Minimum inhibitory concentration (MIC), B. thailandensis ATCC 700388.
Assay [3] addresses T2, PBP3 from Acinetobacter baumannii (ATCC 19606) (Acinetobacter baumannii, UniProt A0ABX6CK25).
T2 sequence (A0ABX6CK25 64-610): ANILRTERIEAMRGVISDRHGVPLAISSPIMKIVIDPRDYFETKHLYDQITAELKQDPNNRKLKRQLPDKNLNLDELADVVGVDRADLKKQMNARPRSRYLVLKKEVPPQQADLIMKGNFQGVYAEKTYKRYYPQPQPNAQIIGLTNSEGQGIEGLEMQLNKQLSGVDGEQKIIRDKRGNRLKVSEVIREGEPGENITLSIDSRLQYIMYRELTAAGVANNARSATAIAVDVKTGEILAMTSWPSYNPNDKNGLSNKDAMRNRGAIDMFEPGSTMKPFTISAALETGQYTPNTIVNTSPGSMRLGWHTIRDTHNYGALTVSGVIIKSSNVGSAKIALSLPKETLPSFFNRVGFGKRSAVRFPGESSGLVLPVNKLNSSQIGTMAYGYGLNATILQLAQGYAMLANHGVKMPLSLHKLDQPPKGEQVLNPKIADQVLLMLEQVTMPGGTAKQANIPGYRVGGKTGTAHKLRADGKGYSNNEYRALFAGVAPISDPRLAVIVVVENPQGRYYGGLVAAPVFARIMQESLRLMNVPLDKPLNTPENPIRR
As to the kind of experiment: Bocillin-FL fluorescence polarization competition binding, A. baumannii PBP3. The note with it: fluorescence polarization competition binding assay using Bocillin-FL; read-out: A. baumannii PBP3 Potency. The method in brief:
as §1
In general terms: Polarisation of emitted light reports the rotation of a fluorescent probe.

≈ marks a conversion by molar mass, not a printed value.

T1 sequence (G3XD46 whole entry): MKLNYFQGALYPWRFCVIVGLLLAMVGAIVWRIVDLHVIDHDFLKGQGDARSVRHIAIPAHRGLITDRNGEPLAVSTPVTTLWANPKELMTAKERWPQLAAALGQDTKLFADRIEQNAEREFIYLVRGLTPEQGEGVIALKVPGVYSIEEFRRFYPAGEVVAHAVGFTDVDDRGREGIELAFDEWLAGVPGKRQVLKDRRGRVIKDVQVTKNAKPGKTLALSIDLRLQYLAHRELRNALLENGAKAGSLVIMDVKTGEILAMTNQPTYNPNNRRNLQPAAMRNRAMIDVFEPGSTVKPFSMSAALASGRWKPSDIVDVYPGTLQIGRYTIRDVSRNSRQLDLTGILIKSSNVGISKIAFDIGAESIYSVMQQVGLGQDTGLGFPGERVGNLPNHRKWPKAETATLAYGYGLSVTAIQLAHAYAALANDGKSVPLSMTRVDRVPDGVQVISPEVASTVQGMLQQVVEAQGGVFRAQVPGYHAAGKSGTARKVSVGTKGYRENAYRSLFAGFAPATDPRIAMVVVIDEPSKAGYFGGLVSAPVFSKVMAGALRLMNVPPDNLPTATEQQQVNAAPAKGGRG

Consider `O=C(NCCCN1CCN(C(=O)NC(C(=O)N[C@H]2Cc3ccc(F)c(C(=O)O)c3OB2O)c2cc(F)c(O)c(O)c2Cl)C(=O)C1=O)c1ccc(O)cc1O` (stereo partly drawn) [Example 307, (3R)-3-(2-(2-chloro-5-fluoro-3,4-dihydroxyphenyl)-2-(4-(3-(2,4-dihydroxybenzamido)propyl)-2,3-dioxopiperazine-1-carboxamido)acetamido)-7-fluoro-2-hydroxy-3,4-dihydro-2H-benzo[e][1,2]oxaborinine-8-carboxylic acid], for which the MIC in the assay with A. baumannii CDC-0045 was under 1 mg/L; in the assay with P. aeruginosa CDC-0054, 2 to 4 mg/L (≈ 2.58 to 5.16 µM); with P. aeruginosa ATCC 27853, 2 to 4 mg/L (≈ 2.58 to 5.16 µM); in the assay on A. baumannii ATCC 17978, under 1 mg/L; in the assay with A. baumannii 1258916, under 1 mg/L; in the assay on P. aeruginosa CDC-0090, under 1 mg/L. The MIC in the assay on A. baumannii CDC-0036 lay within 2 to 4 mg/L (≈ 2.58 to 5.16 µM); in assay [2], 8 to 16 mg/L (≈ 10.3 to 20.6 µM). For the same compound, the IC50 in assay [1] and in [3] was under 10 µM each time.

`O=C(O)c1c(F)ccc2c1OB(O)[C@@H](NC(=O)C(NC(=O)N1CCN(C3CCN(C(=O)c4c(F)ccc(O)c4F)CC3)C(=O)C1=O)c1cc(F)c(O)c(O)c1Cl)C2` (stereo partly drawn) [Example 308, (3R)-3-(2-(2-chloro-5-fluoro-3,4-dihydroxyphenyl)-2-(4-(1-(2,6-difluoro-3-hydroxybenzoyl)piperidin-4-yl)-2,3-dioxopiperazine-1-carboxamido)acetamido)-7-fluoro-2-hydroxy-3,4-dihydro-2H-benzo[e][1,2]oxaborinine-8-carboxylic acid]: the MIC with A. baumannii CDC-0045 was under 1 mg/L; with P. aeruginosa CDC-0054 it was under 1 mg/L; with P. aeruginosa ATCC 27853, under 1 mg/L; in the assay with A. baumannii ATCC 17978 it was under 1 mg/L; with A. baumannii 1258916 it was under 1 mg/L; in the assay on P. aeruginosa CDC-0090, 2 to 4 mg/L (≈ 2.43 to 4.87 µM). Further, the MIC (with A. baumannii CDC-0036; in assay [2]) was 2 to 4 mg/L (≈ 2.43 to 4.87 µM) in each case. The IC50 in assay [1] and in [3] was under 10 µM in each case.

Turning to `O=C(O)c1c(F)ccc2c1OB(O)[C@@H](NC(=O)C(NC(=O)N1CCN(C3CCN(C(=O)c4cc(O)cc(O)c4)CC3)C(=O)C1=O)c1cc(F)c(O)c(O)c1Cl)C2` (stereo partly drawn) [Example 309, (3R)-3-(2-(2-chloro-5-fluoro-3,4-dihydroxyphenyl)-2-(4-(1-(3,5-dihydroxybenzoyl)piperidin-4-yl)-2,3-dioxopiperazine-1-carboxamido)acetamido)-7-fluoro-2-hydroxy-3,4-dihydro-2H-benzo[e][1,2]oxaborinine-8-carboxylic acid], the MIC with A. baumannii CDC-0045 is under 1 mg/L; with P. aeruginosa CDC-0054, under 1 mg/L; in the assay with P. aeruginosa ATCC 27853 it was 2 to 4 mg/L (≈ 2.49 to 4.99 µM); with A. baumannii ATCC 17978, under 1 mg/L; in the assay with A. baumannii 1258916 it was under 1 mg/L; in the assay with P. aeruginosa CDC-0090, 2 to 4 mg/L (≈ 2.49 to 4.99 µM). In addition, the MIC (with A. baumannii CDC-0036; in assay [2]) was under 1 mg/L in each case. For the same compound, the IC50 in assay [1] and in assay [3] was under 10 µM throughout.

`CN(CCCN1CCN(C(=O)NC(C(=O)N[C@H]2Cc3ccc(F)c(C(=O)O)c3OB2O)c2cc(F)c(O)c(O)c2Cl)C(=O)C1=O)C(=O)c1cccc(O)c1` (stereo partly drawn) [Example 310, (3R)-3-(2-(2-chloro-5-fluoro-3,4-dihydroxyphenyl)-2-(4-(3-(3-hydroxy-N-methylbenzamido)propyl)-2,3-dioxopiperazine-1-carboxamido)acetamido)-7-fluoro-2-hydroxy-3,4-dihydro-2H-benzo[e][1,2]oxaborinine-8-carboxylic acid]: the MIC with A. baumannii CDC-0045 was under 1 mg/L; in the assay with P. aeruginosa CDC-0054, under 1 mg/L; in the assay with P. aeruginosa ATCC 27853, under 1 mg/L; in the assay with A. baumannii ATCC 17978, under 1 mg/L; with A. baumannii 1258916, under 1 mg/L; in the assay on P. aeruginosa CDC-0090 it was 2 to 4 mg/L (≈ 2.58 to 5.17 µM). Moreover, the MIC (with A. baumannii CDC-0036; in assay [2]) was 2 to 4 mg/L (≈ 2.58 to 5.17 µM) each time. For the same compound, the IC50 in assay [1] and in assay [3] was under 10 µM each time.

`O=C(NCCCN1CCN(C(=O)NC(C(=O)N[C@H]2Cc3ccc(F)c(C(=O)O)c3OB2O)c2cc(F)c(O)c(O)c2Cl)C(=O)C1=O)c1ccncc1F` (stereo partly drawn) [Example 400, (3R)-3-(2-(2-chloro-5-fluoro-3,4-dihydroxyphenyl)-2-(4-(3-(3-fluoroisonicotinamido)propyl)-2,3-dioxopiperazine-1-carboxamido)acetamido)-7-fluoro-2-hydroxy-3,4-dihydro-2H-benzo[e][1,2]oxaborinine-8-carboxylic acid]: the MIC in the assay on A. baumannii CDC-0045 was under 1 mg/L; with P. aeruginosa CDC-0054, under 1 mg/L; with P. aeruginosa ATCC 27853, 2 to 4 mg/L (≈ 2.62 to 5.24 µM); with A. baumannii ATCC 17978, under 1 mg/L; in the assay on A. baumannii 1258916 it was 2 to 4 mg/L (≈ 2.62 to 5.24 µM); in the assay with P. aeruginosa CDC-0090, 2 to 4 mg/L (≈ 2.62 to 5.24 µM). Also, the MIC (in the assay with A. baumannii CDC-0036; in assay [2]) was 2 to 4 mg/L (≈ 2.62 to 5.24 µM) each time. For the same compound, the IC50 in [1] and in [3] was under 10 µM in each case.

`O=C(NCCCN1CCN(C(=O)NC(C(=O)N[C@H]2Cc3ccc(F)c(C(=O)O)c3OB2O)c2cc(F)c(O)c(O)c2Cl)C(=O)C1=O)c1c(F)cncc1F` (stereo partly drawn) [Example 402, (3R)-3-(2-(2-chloro-5-fluoro-3,4-dihydroxyphenyl)-2-(4-(3-(3,5-difluoroisonicotinamido)propyl)-2,3-dioxopiperazine-1-carboxamido)acetamido)-7-fluoro-2-hydroxy-3,4-dihydro-2H-benzo[e][1,2]oxaborinine-8-carboxylic acid]: the MIC in the assay with A. baumannii CDC-0045 was under 1 mg/L; in the assay with P. aeruginosa CDC-0054, under 1 mg/L; in the assay on P. aeruginosa ATCC 27853, 2 to 4 mg/L (≈ 2.56 to 5.12 µM); in the assay on A. baumannii ATCC 17978 it was under 1 mg/L; with A. baumannii 1258916 it was 2 to 4 mg/L (≈ 2.56 to 5.12 µM); with P. aeruginosa CDC-0090, under 1 mg/L. Further, the MIC (with A. baumannii CDC-0036; in [2]) was 2 to 4 mg/L (≈ 2.56 to 5.12 µM) in each case. Further, the IC50 in [1] and in [3] was under 10 µM in each case.

As for `O=C(NCCCN1CCN(C(=O)NC(C(=O)N[C@H]2Cc3ccc(F)c(C(=O)O)c3OB2O)c2cc(F)c(O)c(O)c2Cl)C(=O)C1=O)c1c(F)cncc1Cl` (stereo partly drawn) [Example 403, (3R)-3-(2-(2-chloro-5-fluoro-3,4-dihydroxyphenyl)-2-(4-(3-(3-chloro-5-fluoroisonicotinamido)propyl)-2,3-dioxopiperazine-1-carboxamido)acetamido)-7-fluoro-2-hydroxy-3,4-dihydro-2H-benzo[e][1,2]oxaborinine-8-carboxylic acid], the MIC was under 1 mg/L with A. baumannii CDC-0045; under 1 mg/L with P. aeruginosa CDC-0054; 2 to 4 mg/L (≈ 2.51 to 5.02 µM) in the assay with P. aeruginosa ATCC 27853; under 1 mg/L in the assay with A. baumannii ATCC 17978; 2 to 4 mg/L (≈ 2.51 to 5.02 µM) in the assay with A. baumannii 1258916; 2 to 4 mg/L (≈ 2.51 to 5.02 µM) in the assay on P. aeruginosa CDC-0090. For the same compound, the MIC (in the assay on A. baumannii CDC-0036; in assay [2]) was 2 to 4 mg/L (≈ 2.51 to 5.02 µM) in each case. For the same compound, the IC50 in assay [1] and in assay [3] was under 10 µM in each case.

`O=C(NCCCN1CCN(C(=O)NC(C(=O)N[C@H]2Cc3ccc(F)c(C(=O)O)c3OB2O)c2cc(F)c(O)c(O)c2Cl)C(=O)C1=O)c1cc(F)c(F)c(O)c1F` (stereo partly drawn) [Example 404, (3R)-3-(2-(2-chloro-5-fluoro-3,4-dihydroxyphenyl)-2-(2,3-dioxo-4-(3-(2,4,5-trifluoro-3-hydroxybenzamido)propyl)piperazine-1-carboxamido)acetamido)-7-fluoro-2-hydroxy-3,4-dihydro-2H-benzo[e][1,2]oxaborinine-8-carboxylic acid]: the MIC in the assay on A. baumannii CDC-0045 is under 1 mg/L; in the assay on P. aeruginosa CDC-0054, under 1 mg/L; in the assay on P. aeruginosa ATCC 27853, 2 to 4 mg/L (≈ 2.46 to 4.91 µM); in the assay with A. baumannii ATCC 17978 it was under 1 mg/L; in the assay on A. baumannii 1258916, 2 to 4 mg/L (≈ 2.46 to 4.91 µM); in the assay with P. aeruginosa CDC-0090 it was 2 to 4 mg/L (≈ 2.46 to 4.91 µM). The MIC (in the assay on A. baumannii CDC-0036; in [2]) was 2 to 4 mg/L (≈ 2.46 to 4.91 µM) in each case. In addition, the IC50 in assay [1] and in assay [3] was under 10 µM in each case.

(Values after patent US20240270762A1, “PENICILLIN-BINDING PROTEIN INHIBITORS” (priority 2021, published 2024).)
